Reference: US11179383B2 (Gilead Sciences, Inc., priority 2018, dated 2021)

molecular target: T1, α4β7 integrin (Homo sapiens, UniProt P13612+P26010); experiment: α4β7 Integrin Cell Capture Assay; format: cell-based; conditions: capture of α4β7 integrin expressing RPMI8866 cells on recombinant MadCAM-1 extracellular domain-coated plate; DMEM+0.5% FBS+0.5 mM MnCl2; read-out: EC50 α4β7
T1 construct: monitoring the capture of α4β7 integrin expressing cells on a recombinant MadCAM-1 extracellular domain-coated plate; endogenous in cells; host or cells: RPMI8866 cells
T1 sequence (P13612 34-1032): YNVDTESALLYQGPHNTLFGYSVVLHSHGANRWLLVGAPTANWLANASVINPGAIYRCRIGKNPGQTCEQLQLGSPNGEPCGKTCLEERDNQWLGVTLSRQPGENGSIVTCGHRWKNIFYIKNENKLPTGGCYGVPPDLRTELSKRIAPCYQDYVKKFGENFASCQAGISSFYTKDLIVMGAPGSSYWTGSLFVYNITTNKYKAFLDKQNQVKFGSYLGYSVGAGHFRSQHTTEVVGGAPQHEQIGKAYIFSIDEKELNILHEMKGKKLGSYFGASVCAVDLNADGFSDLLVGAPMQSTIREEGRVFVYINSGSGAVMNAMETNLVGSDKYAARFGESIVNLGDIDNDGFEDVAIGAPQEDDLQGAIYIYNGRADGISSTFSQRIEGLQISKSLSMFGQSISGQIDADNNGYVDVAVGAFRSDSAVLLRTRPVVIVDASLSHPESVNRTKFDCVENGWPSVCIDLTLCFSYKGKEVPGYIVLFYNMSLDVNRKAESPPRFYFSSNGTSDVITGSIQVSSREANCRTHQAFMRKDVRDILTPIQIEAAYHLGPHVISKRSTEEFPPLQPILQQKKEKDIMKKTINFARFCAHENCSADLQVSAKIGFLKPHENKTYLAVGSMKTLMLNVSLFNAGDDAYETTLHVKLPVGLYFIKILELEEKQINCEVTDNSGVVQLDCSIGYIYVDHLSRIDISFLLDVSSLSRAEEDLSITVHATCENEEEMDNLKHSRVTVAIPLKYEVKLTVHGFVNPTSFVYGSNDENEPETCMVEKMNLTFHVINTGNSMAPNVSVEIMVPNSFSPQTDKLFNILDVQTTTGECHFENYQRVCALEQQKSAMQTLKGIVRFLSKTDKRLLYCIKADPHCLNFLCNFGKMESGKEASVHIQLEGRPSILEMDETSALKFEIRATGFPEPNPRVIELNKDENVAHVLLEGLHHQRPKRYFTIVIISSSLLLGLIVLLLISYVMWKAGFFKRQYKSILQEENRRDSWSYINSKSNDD
T1 sequence (P26010 20-798): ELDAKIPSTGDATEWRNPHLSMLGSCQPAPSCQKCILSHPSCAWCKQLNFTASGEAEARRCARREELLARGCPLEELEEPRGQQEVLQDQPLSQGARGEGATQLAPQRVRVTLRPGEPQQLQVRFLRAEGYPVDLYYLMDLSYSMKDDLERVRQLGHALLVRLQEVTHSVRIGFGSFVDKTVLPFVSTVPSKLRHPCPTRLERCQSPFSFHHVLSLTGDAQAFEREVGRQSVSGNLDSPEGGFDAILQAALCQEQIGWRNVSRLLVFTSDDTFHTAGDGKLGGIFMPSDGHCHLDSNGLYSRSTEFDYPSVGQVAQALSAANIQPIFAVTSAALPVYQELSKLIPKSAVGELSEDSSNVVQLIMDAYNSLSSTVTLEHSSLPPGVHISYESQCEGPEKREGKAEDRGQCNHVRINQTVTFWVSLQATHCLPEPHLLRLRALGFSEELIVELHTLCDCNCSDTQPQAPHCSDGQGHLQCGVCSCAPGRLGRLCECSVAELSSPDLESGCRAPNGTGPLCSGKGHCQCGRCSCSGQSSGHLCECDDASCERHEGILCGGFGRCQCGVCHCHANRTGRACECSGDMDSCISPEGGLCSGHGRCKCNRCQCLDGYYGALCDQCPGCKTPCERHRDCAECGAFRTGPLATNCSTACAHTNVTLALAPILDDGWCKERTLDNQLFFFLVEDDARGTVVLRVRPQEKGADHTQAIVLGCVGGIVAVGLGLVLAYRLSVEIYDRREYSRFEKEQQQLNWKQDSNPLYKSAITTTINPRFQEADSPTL
Procedure, shortened: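 RPMI8866 cells in DMEM + 0.5% FBS + 0.5 mM MnCl2 preincubated with compound 1 h at 37 °C, then allowed to bind 30 min at 37 °C to plates coated with MAdCAM-1 extracellular domain (1.0 μg/mL). Cells fixed with glutaraldehyde, Hoechst-stained, imaged and bound cells counted; EC50 from cell count versus concentration.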

Compound	EC50
Cc1c(-c2ccc(C[C@H](NC(=O)c3c(Cl)cccc3Cl)C(=O)O)c3ncccc23)c(C(F)(F)F)nn1C [Example 18, (S)-2-(2,6-dichlorobenzamido)-3-(5-(1,5-dimethyl-3-(trifluoromethyl)-1H-pyrazol-4-yl)quinolin-8-yl)propanoic acid]	416 nM
O=C(N[C@@H](Cc1ccc(-c2cccc3c2COCC3)c2cccnc12)C(=O)O)c1c(Cl)cccc1Cl [Example 20, (S)-2-(2,6-dichlorobenzamido)-3-(5-(isochroman-8-yl)quinolin-8-yl)propanoic acid]	374 nM
Cn1c(=O)c(-c2ccc(C[C@H](NC(=O)c3c(Cl)cccc3Cl)C(=O)O)c3ncccc23)cc2ccccc21 [Example 21, (S)-2-(2,6-dichlorobenzamido)-3-(1-methyl-2-oxo-1,2-dihydro-[3,5′-biquinolin]-8′-yl)propanoic acid]	5.8 nM
CCn1cccc(-c2ccc(C[C@H](NC(=O)c3c(Cl)cccc3Cl)C(=O)O)c3ncccc23)c1=O [Example 22, (S)-2-(2,6-dichlorobenzamido)-3-(5-(1-ethyl-2-oxo-1,2-dihydropyridin-3-yl)quinolin-8-yl)propanoic acid]	123 nM
O=C(N[C@@H](Cc1ccc(-c2cccc3c2OCCC3)c2cccnc12)C(=O)O)c1c(Cl)cccc1Cl [Example 24, (S)-3-(5-(chroman-8-yl)quinolin-8-yl)-2-(2,6-dichlorobenzamido)propanoic acid]	49.5 nM
O=C(N[C@@H](Cc1ccc(-c2ncc3ccccc3c2Br)c2cccnc12)C(=O)O)c1c(Cl)cccc1Cl [Example 25, (S)-3-(5-(4-bromoisoquinolin-3-yl)quinolin-8-yl)-2-(2,6-dichlorobenzamido)propanoic acid]	20 nM
Cc1nn(C)nc1-c1ccc(C[C@H](NC(=O)c2c(Cl)cccc2Cl)C(=O)O)c2ncccc12 [Example 26, (S)-2-(2,6-dichlorobenzamido)-3-(5-(2,5-dimethyl-2H-1,2,3-triazol-4-yl)quinolin-8-yl)propanoic acid]	290 nM
COc1ncc(F)cc1-c1ccc(C[C@H](NC(=O)c2c(Cl)cccc2Cl)C(=O)O)c2ncccc12 [Example 28, (S)-2-(2,6-dichlorobenzamido)-3-(5-(5-fluoro-2-methoxypyridin-3-yl)quinolin-8-yl)propanoic acid]	194 nM
COc1ccn(C)c(=O)c1-c1ccc(CC(NC(=O)c2c(Cl)cccc2Cl)C(=O)O)c2ncccc12 (stereo not drawn) [Example 32, 2-(2,6-Dichlorobenzamido)-3-(5-(4-methoxy-1-methyl-2-oxo-1,2-dihydropyridin-3-yl)quinolin-8-yl)propanoic acid]	6 nM
Cc1c(-c2ccc(C[C@H](NC(=O)c3c(Cl)cccc3Cl)C(=O)O)c3ncccc23)c(=O)n(C)c2ccccc12 [Example 34, (S)-2-(2,6-dichlorobenzamido)-3-(1,4-dimethyl-2-oxo-1,2-dihydro-[3,5′-biquinolin]-8′-yl)propanoic acid]	4 nM
COc1cc(F)cc(C(F)(F)F)c1-c1ccc(C[C@H](NC(=O)c2c(Cl)cccc2Cl)C(=O)O)c2ncccc12 [Example 35, (2S)-2-(2,6-dichlorobenzamido)-3-(5-(4-fluoro-2-methoxy-6-(trifluoromethyl)phenyl)quinolin-8-yl)propanoic acid]	53.5 nM
COc1cc(F)cc(Cl)c1-c1ccc(C[C@H](NC(=O)c2c(Cl)cccc2Cl)C(=O)O)c2ncccc12 [Example 36, (2S)-3-(5-(2-chloro-4-fluoro-6-methoxyphenyl)quinolin-8-yl)-2-(2,6-dichlorobenzamido)propanoic acid]	115 nM
COc1cccc(Cl)c1-c1ccc(C[C@H](NC(=O)c2c(Cl)cccc2Cl)C(=O)O)c2ncccc12 [Example 37, (2S)-3-(5-(2-chloro-6-methoxyphenyl)quinolin-8-yl)-2-(2,6-dichlorobenzamido) propanoic acid]	65.6 nM
O=C(N[C@@H](Cc1ccc(-c2cccc[n+]2[O-])c2cccnc12)C(=O)O)c1c(Cl)cccc1Cl [Example 38]	212 nM
Cc1c(-c2ccc(C[C@H](NC(=O)c3c(Cl)cccc3Cl)C(=O)O)c3ncccc23)ncc2ccccc12 [Example 40, (S)-2-(2,6-dichlorobenzamido)-3-(5-(4-methylisoquinolin-3-yl)quinolin-8-yl)propanoic acid]	32.7 nM
Cc1c(-c2ccc(C[C@H](NC(=O)c3c(Cl)cccc3Cl)C(=O)O)c3ncccc23)c(=O)n(C)c2cc(F)ccc12 [Example 41, (S)-2-(2,6-dichlorobenzamido)-3-(7-fluoro-1,4-dimethyl-2-oxo-1,2-dihydro-[3,5′-biquinolin]-8′-yl)propanoic acid]	7.5 nM

Now from value to compound:

EC50	Compound
26.3 nM	Cn1cc(F)cc(-c2ccc(C[C@H](NC(=O)c3c(Cl)cccc3Cl)C(=O)O)c3ncccc23)c1=O [Example 19, (S)-2-(2,6-dichlorobenzamido)-3-(5-(5-fluoro-1-methyl-2-oxo-1,2-dihydropyridin-3-yl)quinolin-8-yl)propanoic acid]
18.5 nM	Cn1cc(C(F)(F)F)cc(-c2ccc(C[C@H](NC(=O)c3c(Cl)cccc3Cl)C(=O)O)c3ncccc23)c1=O [Example 23, (S)-2-(2,6-dichlorobenzamido)-3-(5-(1-methyl-2-oxo-5-(trifluoromethyl)-1,2-dihydropyridin-3-yl)quinolin-8-yl)propanoic acid]
57.7 nM	Cn1ccnc(-c2ccc(C[C@H](NC(=O)c3c(Cl)cccc3Cl)C(=O)O)c3ncccc23)c1=O [Example 27, (S)-2-(2,6-dichlorobenzamido)-3-(5-(4-methyl-3-oxo-3,4-dihydropyrazin-2-yl)quinolin-8-yl)propanoic acid]
16.7 nM	Cn1cc(Cl)cc(-c2ccc(C[C@H](NC(=O)c3c(Cl)cccc3Cl)C(=O)O)c3ncccc23)c1=O [Example 29, (S)-3-(5-(5-chloro-1-methyl-2-oxo-1,2-dihydropyridin-3-yl)quinolin-8-yl)-2-(2,6-dichlorobenzamido)propanoic acid]
46.4 nM	Cc1ccn(C)c(=O)c1-c1ccc(CC(NC(=O)c2c(Cl)cccc2Cl)C(=O)O)c2ncccc12 (stereo not drawn) [Example 30, 2-(2,6-Dichlorobenzamido)-3-(5-(1,4-dimethyl-2-oxo-1,2-dihydropyridin-3-yl)quinolin-8-yl)propanoic acid]
23.2 nM	Cc1cc(-c2ccc(C[C@H](NC(=O)c3c(Cl)cccc3Cl)C(=O)O)c3ncccc23)c(=O)n(C)c1 [Example 31, (S)-2-(2,6-Dichlorobenzamido)-3-(5-(1,5-dimethyl-2-oxo-1,2-dihydropyridin-3-yl)quinolin-8-yl)propanoic acid]
12.2 nM	Cc1ccc(-c2ccc(C[C@H](NC(=O)c3c(Cl)cccc3Cl)C(=O)O)c3ncccc23)c(=O)n1C [Example 33, (S)-2-(2,6-dichlorobenzamido)-3-(5-(1,6-dimethyl-2-oxo-1,2-dihydropyridin-3-yl)quinolin-8-yl)propanoic acid]
74 nM	Cn1cccc(-c2ccc(C[C@H](NC(=O)c3c(Cl)cccc3Cl)C(=O)O)c3ncccc23)c1=O [Example 39, (S)-2-(2,6-dichlorobenzamido)-3-(5-(1-methyl-2-oxo-1,2-dihydropyridin-3-yl)quinolin-8-yl)propanoic acid]
